The record followed here is a melting point compilation (Tetko et al.).

A word on the melting point: it is the temperature of the solid-liquid transition. `Cc1cc(Br)cc(C)c1I` yielded a melting point of 42 to 44 °C.
Regarding `Cc1ncsc1C`, the melting point is 83.5 °C.
In turn, `Cc1cc(O)cc(Br)c1` gave a melting point of 56.5 °C.
The same measure for `COc1cc(O)c(C(=O)c2ccccc2)cc1S(=O)(=O)O`: 170 °C.
As for `CC(C)Nc1nc(Cl)nc(NC2CC2)n1`, the melting point turned out to be 167 °C.
`FC(F)(F)c1ccc(-n2ccnc2)cc1` returned a melting point of 71 to 73 °C.
`N#CC(C#N)=C1c2cc([N+](=O)[O-])ccc2-c2c1cc([N+](=O)[O-])cc2[N+](=O)[O-]` showed a melting point of 267 °C.
On to `CCCCCCCCCC(=O)c1ccccc1`, for which the melting point was in the range of 34 to 38 °C.
The same measure for `CC(=O)Nc1cc(Cl)c(Cl)cc1NC(C)=O`: 255 to 258 °C.
Take `CC(C)(C)N=C=O`: the melting point came out at 85.5 °C.
Take `CCC1(c2cccc(O)c2)CCCCN(C)C1=O` (stereo not drawn): the melting point was 172 to 176 °C.
`O=[N+]([O-])c1ccccc1Sc1ccccc1` yielded a melting point of 82 °C.
The compound `COc1cc(C=C2CCCC(=Cc3ccc(O)c(OC)c3)C2=O)ccc1O` had a melting point of 178 °C.
Turning to `COC(=O)C1Nc2ccccc2C1(C)C` (stereo not drawn), the melting point was 168 to 170 °C.
In the case of `CCn1cc(C(=O)O)c(=O)c2ccc(-c3ccncc3)cc21`, the melting point stood at 290 °C.
The compound `CCCCCCCCCCCCCC(=O)CC` gave a melting point of 43 °C.
The same measure for `CCCCCCCCN(CCCCCCCC)CCCCCCCC`: 34 °C.
The same measure for `CC(=O)OC1CCC2C3CCC4CC5(CCC4(C)C3CCC12C)OCCO5` (stereo not drawn): 144 °C; for `Ic1cccc(OCc2ccccc2)c1`: 51 °C; for `O=S1(=O)CCN(Cc2cccs2)CC1`: 126 to 128 °C.
`O[C@@H]1C#CCCCCC#C[C@@H](O)CC1` displayed a melting point of 154 °C.
The same measure for `O=C(O)C1(C(=O)O)C2CCCCCCC21` (stereo not drawn): 217 °C; for `CN(C)c1ccc(C=CC(=O)O)cc1`: 225 to 228 °C; for `COc1ncccc1C(=O)O`: 149 °C.
In the case of `Nc1ncnc2c1ncn2C1OC(COP(=O)(O)O)C(O)C1O` (stereo not drawn), the melting point was 213 °C.
The same measure for `O=[N+]([O-])c1ccc2c(c1)NCC2`: 68 °C; for `CCCCCCCCOC(=O)CCCCCCC`: -18.1 °C.
`O=C1Nc2ccccc2/C1=C/c1ccccc1[N+](=O)[O-]` had a melting point of 82 °C.
Consider `CC(=O)OC(C)CC(C)C` (stereo not drawn), for which the melting point is -64 °C.
The compound `Fc1cccc(P(c2cccc(F)c2)c2cccc(F)c2)c1` displayed a melting point of 61.5 °C.
`Fc1ncccc1I` showed a melting point of 45 to 46 °C.
In turn, `CC(=O)c1cc(Cl)sc1Cl` had a melting point of 38 °C.
`O=C(c1ccccc1)c1cccnc1` showed a melting point of 38 °C.
In turn, `O=c1ccocc1` gave a melting point of 32.5 °C.
Turning to `Cc1cccc(C)c2cc(C(C)C)cc1-2`, the melting point is 32.3 °C.
The same measure for `O=[N+]([O-])c1ccccc1/C=C(/Cl)c1ccccn1`: 60.5 to 61 °C.
In turn, `Oc1cc2c(cc1O)Cc1cc(O)c(O)cc1Cc1cc(O)c(O)cc1C2` had a melting point of 287 to 289 °C.
The compound `CC(C)(C)C(C)(C)Cl` registered a melting point of 136 °C.
Take `CN1CCN(c2cccc(N)c2)CC1`: the melting point was in the range of 98 to 99 °C.
The same measure for `COc1cccc(C(=O)NN(C(=O)c2cc(C)cc(C)c2)C(C)(C)C)c1C`: 204 °C; for `O=C(COc1ncn(-c2ccc(Cl)cc2)n1)NNC(=S)NCc1ccccc1`: 133 to 135 °C; for `NCCCNCCN`: 10 °C.
With `O=C(O)C1(O)CC1`, the melting point lay in the range of 108 to 110 °C.
The compound `Nc1ncnc2[nH]cnc12` had a melting point of 360 to 365 °C.
Turning to `CCCC(C)O` (stereo not drawn), the melting point is -73 °C.
The same measure for `Cc1c(C(=O)O)[nH]c2ccccc12`: 162 to 163 °C; for `O=C(Cl)c1cn(S(=O)(=O)c2ccccc2)c2ccccc12`: 144 °C; for `CC(=O)Nc1cc(CCNC(=O)c2ccccc2)c(NC(C)=O)cc1CCNC(=O)c1ccccc1`: 285 °C.
Regarding `COc1ccc(Br)cc1C`, the melting point turned out to be 68 °C.
The compound `CC(=O)c1csc(-c2cc(C)on2)n1` came in with a melting point of 130 to 132 °C.
The same measure for `Cc1nc(-c2cc(C(=O)O)no2)cs1`: 166 to 167 °C; for `COc1cccc(C(=O)CBr)c1`: 62 °C.
`NC(=O)C1CCCN1C(=O)COC(=O)c1ccccc1` (stereo not drawn) returned a melting point of 194 °C.
As to `NC(=S)CNC(=O)OCc1ccccc1`, the melting point is 144 to 146 °C.
Regarding `Cc1cc(-c2cc(C)c(O)c(C)c2)cc(C)c1O`, the melting point is 222 °C.
The same measure for `C[Si](C)(C)C#Cc1ccccn1`: 42 to 45 °C; for `CC(C)(C)OC(=O)N[C@@H](CCC(=O)O)C(=O)O`: 110 to 113 °C.
Regarding `Fc1cc2c(cc1F)Oc1cc(Cl)c(Cl)cc1O2`, the melting point is 223 °C.
With `O=C(O)C(Br)C(Br)C(=O)O` (stereo not drawn), the melting point stood at 275 °C.
The same measure for `NC(=O)c1c(F)cccc1Cl`: 141 °C.
`N#Cc1c(C(F)(F)F)cc(Nc2cccc([N+](=O)[O-])c2)nc1Cl` displayed a melting point of 276 to 279 °C.
In turn, `O=Cc1ccccc1OCCN1CCOCC1` displayed a melting point of 43 to 45 °C.
In turn, `Cc1cc(C)c2c(N)c(C(N)=O)sc2n1` registered a melting point of 234 to 235 °C.
`Nc1ccc(N)cc1` came in with a melting point of 146 °C.
The same measure for `CCCCCCn1c(=O)c2c(ncn2C)n(C)c1=O`: 82 °C.
As to `COc1cccc(OCc2ccccc2Cl)c1C#N`, the melting point was 152 to 154 °C.
The same measure for `CCOC(=O)Cn1nc(-c2ccccc2)c2ccccc2c1=O`: 224 °C.
In turn, `O=C1CCC2OCC(c3ccccc3)N12` (stereo not drawn) displayed a melting point of 76 to 80 °C.
`COc1ccc(C=Cc2ccccc2)cc1`: the melting point lay in the range of 135 to 138 °C.
`Cc1cc(C(=O)CCl)c(C)n1-c1ccc(Cl)cc1`: the melting point was 88 to 89 °C.
In the case of `O=C1OC2(c3ccccc31)c1cc([N+](=O)[O-])c(O)c(Br)c1Oc1c2cc([N+](=O)[O-])c(O)c1Br`, the melting point stood at 275 °C.
`CCC(O)C1CCCCN1` (stereo not drawn): the melting point was found to be 121 °C.
In turn, `Brc1ccc(Oc2c(Br)cc(Br)cc2Br)cc1` showed a melting point of 134 to 136 °C.
The same measure for `CC(C)(C#N)Nc1nc(Cl)nc(NC2CC2)n1`: 170 °C.
Consider `O=C(Oc1cccc([N+](=O)[O-])c1)c1ccccc1`, for which the melting point worked out at 95 °C.
Turning to `Cc1cc2ncc(S(=O)(=O)C(C)(C)C)c(N)n2n1`, the melting point was 206 to 208 °C.
The compound `CCCCC(N)P(=O)(O)O` (stereo not drawn) registered a melting point of 267 to 269 °C.
`CCCCCCCCCCCCOc1ccc(C(C)=O)cc1OCCCCCCCCCCCC` gave a melting point of 62 to 67 °C.
Consider `O=c1c2c(oc3c1CCCC3)CCCC2`, for which the melting point turned out to be 130 °C.
The same measure for `O=c1[nH]c(=O)n(C2CC(O)C(CO)O2)cc1Br` (stereo not drawn): 192 °C.
Consider `O=C(NC(Cc1ccccc1)c1ccccc1)c1cccnc1` (stereo not drawn), for which the melting point amounted to 159 °C.
For the compound `N#Cc1ccc(N)c2ccccc12`, the melting point was 176 °C.
With `CC(C)C1(C)N=C(c2nc3ccccc3cc2C(=O)O)NC1=O` (stereo not drawn), the melting point was 224 °C.
In turn, `Clc1ccccc1-c1nc2ccccc2[nH]1` registered a melting point of 234 °C.
In turn, `CC(C)(C)c1ccc(N)c(N)c1` showed a melting point of 98 to 100 °C.
On to `COC(=O)CCC(C)C1CCC2C3C(OC(C)=O)CC4CC(=O)CCC4(C)C3CC(=O)C12C` (stereo not drawn), for which the melting point lay in the range of 165 to 167 °C.
In turn, `NCc1cc(-c2ccco2)on1` registered a melting point of 46 to 49 °C.
`COc1ccc(C(N)C(N)c2ccc(OC)cc2)cc1` (stereo not drawn) showed a melting point of 148 to 152 °C.
In turn, `CC(=O)NNC(C)=O` yielded a melting point of 140 °C.
Compound `CCON=C(CC)C1=C(O)CC(c2c(C)cc(C)cc2C)CC1=O` (stereo not drawn) yielded a melting point of 110 °C.
The same measure for `CC(OC/C(=N\NC(N)=O)c1ccccc1)=C(C#N)c1ccccc1`: 156 to 158 °C.
As to `COc1cc2c(c(O)c1OC)CNCC2`, the melting point turned out to be 188 °C.
`CS(=O)(=O)CC(=O)O` returned a melting point of 117 °C.
`O=Cc1cc([N+](=O)[O-])ccc1F`: the melting point worked out at 58 °C.
The same measure for `CC12CCc3c(ccc4cc(O)ccc34)C1CCC2=O` (stereo not drawn): 258 °C; for `O=Cc1ccc(-c2ccco2)s1`: 40 to 41 °C.
The same measure for `CCOc1cc2c(cc1OCC)C(C)=NCC2`: 68 to 71 °C.
Take `CC(O)CC(=O)O` (stereo not drawn): the melting point stood at 49 °C.
On to `COC(=O)C1(S(=O)(=O)c2ccc(Cl)cc2)CCC1`, for which the melting point amounted to 76.2 °C.
The same measure for `C=C1C(=O)OC2CC(C)C3C=CC(=O)C3(C)C(O)C12` (stereo not drawn): 168 °C; for `CC(O)C(C)C(N)C(=O)O` (stereo not drawn): 200 °C.
For the compound `N#C/C(=C/c1ccc(Cl)cc1)c1nc(-c2ccccc2)cs1`, the melting point was in the range of 103 to 105 °C.
Compound `N#C/C(=N\Nc1cccc(C(F)(F)F)c1)c1nc2ccccc2[nH]1` had a melting point of 270 °C.
As for `c1ccc2nn(C3CCCCC3)nc2c1`, the melting point was determined as 46.5 °C.
The same measure for `CN(C)c1ccc(C=C/C(=N\Nc2ccccc2)c2ccccc2)cc1`: 127 to 128 °C.
The same measure for `CCc1cn(C2CC(O)C(CO)O2)c(=O)[nH]c1=O` (stereo not drawn): 152 °C; for `COc1cc2c(cc1OC)C(CC#N)NCC2` (stereo not drawn): 110 to 114 °C; for `O=C1OC(=O)C2Cc3ccccc3CC12` (stereo not drawn): 188 °C.
Regarding `N#Cc1cccc(CBr)c1`, the melting point was 94 °C.
`C=C(C)C(=O)Cl`: the melting point was -60 °C.
As to `BrCc1cccc(-n2cccc2)c1`, the melting point lay within 54 to 55 °C.
`Cc1ccc(C(F)(F)F)cc1N` had a melting point of 38 °C.
The same measure for `COc1cc(C=CC(=O)O)c([N+](=O)[O-])cc1OC`: 270 °C.
